Here are results for six compounds from patent publication US7059206B1 (priority 1999, dated 2006).

A short description of data set [1]: Uptake by prototype passive sampler at constant exposure concentration over time. The note with it: polyethylene device. As to the method:
In each experiment, the prototype device was tested fitted with both the polyethylene and the polysulphone membrane.
Accumulation of organic analytes by a passive sampling system fitted with a C18 Empore™ disk as receiving phase and either a […] pore size polysulphone membrane or a polyethylene membrane as a diffusion-limiting membrane material. Accumulation was measured following exposure of the system to an aqueous solution of analytes at constant concentration, stirring speed (140 rpm) and temperature (11° C.). Linear regressions of the accumulation factor, AF, (ml/device) on time were plotted and are given with the […] (R^2) in table 7. AF=mass of analytes in the tested compartment (ng/device)/mean concentration of the analyte in the aqueous phase during deployment (ng/ml).
The pattern of uptake in each case is linear with time over deployment periods ranging from several hours to 9 days. R^2 values in each case are above 0.9. Linear regressions plotted through the data points show the lag time between exposure of the device to an aqueous solution of each analyte and its uptake into the receiving phase of the passive sampling system. In effect this is a measurement of the response time of a particular prototype passive sampling system to a particular compound.

For data set [2] the following is noted: cited from earlier work.
Data set [3] can be described thus: Cadmium uptake by passive sampler, effect of pH and of permselective membrane. An excerpt:
Further evidence for the permselective function of the membrane during diffusion is illustrated by studying the effect of pH on metal uptake by the passive sampler, in this case Cd. […] Cadmium was initially added to a carefully-controlled water system in the laboratory into which the sampler was placed. Samples of water were taken over a period of 10 days.
Further evidence of the interaction of metal with the permselective membrane is that uptake to a naked disk is much more rapid. The uptake rate constant (k) for Cd is 1.6×10^9 min^−1 for the naked disk and 0.21×10^9 min^−1 for the permselective membrane.

Where two headings read alike, the source gives them in different places.

With `Clc1ccc(Cl)c(-c2cc(Cl)ccc2Cl)c1` [PCB 52], the “lag phase between exposure and uptake into the C18 receiving phase” value in data set [1] is “only a small lag phase”. In addition, in data set [2] (temperature not given), the Solubility in water is 0.03 mgl^−1. Turning to `ClC1=C(Cl)[C@]2(Cl)[C@@H]3[C@@H]4C[C@@H]([C@H]5O[C@@H]45)[C@@H]3[C@@]1(Cl)C2(Cl)Cl` [Dieldrin], the “lag phase between exposure and uptake into the C18 receiving phase” value in data set [1] was “a more significant lag phase”. Moreover, the Solubility in water in data set [2] (at 25° C.) is 0.186 mgl^−1. As to `c1ccc2c(c1)ccc1ccccc12` [Phenanthrene], in data set [1], the “lag phase between exposure and uptake into the C18 receiving phase” value is recorded as “only a small lag phase”. As for `[Cd]` [Cadmium], the figures for the “uptake rate constant (k)” value in data set [3] (naked disk) and in data set [3] (permselective membrane (Nafion-coated cellulose acetate)) were 1.6e+09 min⁻¹ and 2.1e+08 min⁻¹, respectively. As to `Clc1cc(Cl)c(-c2cc(Cl)c(Cl)cc2Cl)cc1Cl` [PCB 153], the “lag phase between exposure and uptake into the C18 receiving phase” value in data set [1] is “a more significant lag phase”. Also, the Solubility in water in data set [2] (temperature not given) is 0.00105 mgl^−1.

Consider `CN(C)C(=O)Nc1ccc(Cl)c(Cl)c1` [Diuron], for which, in data set [2] (at 25° C.), the Solubility in water is 42 mgl^−1.
